{
  "source": "patent US7923440B2",
  "about": "“Method of treating or preventing immune mediated disorders and pharmaceutical formulation for use therein” (Pantarhei Bioscience B.V., priority 2002, dated 2011)",
  "key": {"[1]": {"tested_on": "DBA-1 mice developing collagen induced arthritis (CIA)", "test": "Collagen induced arthritis (CIA) in female DBA-1 mice", "assay_type": "in vivo, mouse"}, "[2]": {"details": "intravenous, two adult women, Fishman et al. 1970; cited from earlier work"}, "[3]": {"tested_on": "human breast cancer cells (MCF-7)", "details": "in vitro cell proliferation, Jozan et al. 1981; cited from earlier work"}, "[4]": {"target": "T1, rat uterine nuclear estrogen receptor (Rattus norvegicus, UniProt P06211)", "T1 construct": "rat uterine nuclear estrogen receptor; host or cells: rat uterus, nuclear fraction", "T1 sequence (P06211 1-600)": "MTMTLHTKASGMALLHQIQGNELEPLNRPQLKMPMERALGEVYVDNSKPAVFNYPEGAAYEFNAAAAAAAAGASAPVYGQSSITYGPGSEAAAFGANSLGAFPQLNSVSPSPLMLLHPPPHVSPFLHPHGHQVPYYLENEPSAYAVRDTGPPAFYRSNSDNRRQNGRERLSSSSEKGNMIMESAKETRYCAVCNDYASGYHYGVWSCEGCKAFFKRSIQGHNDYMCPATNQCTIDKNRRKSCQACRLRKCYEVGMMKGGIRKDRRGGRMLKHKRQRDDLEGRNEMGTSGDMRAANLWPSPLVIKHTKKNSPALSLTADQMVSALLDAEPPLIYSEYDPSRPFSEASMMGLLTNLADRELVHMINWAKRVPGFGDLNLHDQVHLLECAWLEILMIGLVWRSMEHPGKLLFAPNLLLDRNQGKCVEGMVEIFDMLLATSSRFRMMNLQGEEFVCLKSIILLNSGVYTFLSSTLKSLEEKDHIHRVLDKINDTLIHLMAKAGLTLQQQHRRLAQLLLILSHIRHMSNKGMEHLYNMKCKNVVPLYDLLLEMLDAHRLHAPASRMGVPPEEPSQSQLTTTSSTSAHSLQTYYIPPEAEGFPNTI", "details": "Martucci et al. 1976; cited from earlier work"}, "[5]": {"details": "ovariectomized female DBA-1 mice, sc and oral 0.1-3.0 mg/kg/day, 60 days"}},
  "data": [
    {"smiles": "C[C@]12CC[C@@H]3c4ccc(O)cc4CC[C@H]3[C@@H]1[C@@H](O)[C@@H](O)[C@@H]2O", "note": "[E4, 1,3,5 (10)-estratrien-3,15α,16α,17β-tetrol]", "values": [
      {"measurement": "symptoms and severity of CIA", "setting": "[1]; non-castrated female DBA-1, daily sc and/or oral", "value": "dose-dependently alleviate symptoms and severity of CIA"},
      {"measurement": "number of afflicted animals and/or severity of CIA symptoms", "setting": "[1]; [5]", "value": "dose-dependently reduced"},
      {"measurement": "onset of CIA symptoms", "setting": "[1]; [5]", "value": "dose-dependent effects in delaying the onset of CIA symptoms"},
      {"measurement": "excretion", "setting": "[2]", "value": "rapidly and completely excreted in urine as the glucosiduronate"},
      {"measurement": "metabolism", "setting": "[2]", "value": "virtually no metabolism except for conjugation took place"},
      {"measurement": "agonistic potency relative to 17β-estradiol", "setting": "[3]", "value": 2, "unit": "%"},
      {"measurement": "relative binding affinity, of 17β-estradiol (100%)", "setting": "[4]", "value": 0.3, "unit": "%"}
    ]}
  ]
}
